Test results published in BindingDB's records for doi:10.1016/j.bmcl.2004.01.013 (University of Arizona, 2004).

Target: Ceramide glucosyltransferase (Canis familiaris)
Experiment: Inhibitory concentration against glucosylceramide synthase in MDCK cell line

Row | Compound | IC50
1 | CCCCCCCCCCCCCCCC(=O)NC(CN1CCCC1)C(O)c1ccc2c(c1)OCCO2 (configuration not stated) [Hexadecanoic acid [2-(2,3-dihydro-benzo[1,4]dioxin-6-yl)-2-hydroxy-1-pyrrolidin-1-ylmethyl-ethyl]-amide] | 90 nM
2 | CCCCCCCCCCCCCCCC(=O)NC(CN1CCCC1)C(O)c1ccc(O)cc1 (configuration not stated) [Hexadecanoic acid [2-hydroxy-2-(4-hydroxy-phenyl)-1-pyrrolidin-1-ylmethyl-ethyl]-amide] | 90 nM
